In ChEMBL document CHEMBL1134917, “Substituted 4-anilino-7-phenyl-3-quinolinecarbonitriles as Src kinase inhibitors” (Bioorg Med Chem Lett, 2002):

Assays:
[1] = Inhibitory concentration required for the Src dependent cell proliferation using Src-transformed fibroblasts
[2] = target: Proto-oncogene tyrosine-protein kinase Src (Homo sapiens, UniProt P12931); test: Inhibitory concentration against Src protein tyrosine kinase
[3] = target: Epidermal growth factor receptor (Homo sapiens, UniProt P00533); test: Inhibition of Epidermal growth factor receptor
Epidermal growth factor receptor, sequence (P00533 whole entry): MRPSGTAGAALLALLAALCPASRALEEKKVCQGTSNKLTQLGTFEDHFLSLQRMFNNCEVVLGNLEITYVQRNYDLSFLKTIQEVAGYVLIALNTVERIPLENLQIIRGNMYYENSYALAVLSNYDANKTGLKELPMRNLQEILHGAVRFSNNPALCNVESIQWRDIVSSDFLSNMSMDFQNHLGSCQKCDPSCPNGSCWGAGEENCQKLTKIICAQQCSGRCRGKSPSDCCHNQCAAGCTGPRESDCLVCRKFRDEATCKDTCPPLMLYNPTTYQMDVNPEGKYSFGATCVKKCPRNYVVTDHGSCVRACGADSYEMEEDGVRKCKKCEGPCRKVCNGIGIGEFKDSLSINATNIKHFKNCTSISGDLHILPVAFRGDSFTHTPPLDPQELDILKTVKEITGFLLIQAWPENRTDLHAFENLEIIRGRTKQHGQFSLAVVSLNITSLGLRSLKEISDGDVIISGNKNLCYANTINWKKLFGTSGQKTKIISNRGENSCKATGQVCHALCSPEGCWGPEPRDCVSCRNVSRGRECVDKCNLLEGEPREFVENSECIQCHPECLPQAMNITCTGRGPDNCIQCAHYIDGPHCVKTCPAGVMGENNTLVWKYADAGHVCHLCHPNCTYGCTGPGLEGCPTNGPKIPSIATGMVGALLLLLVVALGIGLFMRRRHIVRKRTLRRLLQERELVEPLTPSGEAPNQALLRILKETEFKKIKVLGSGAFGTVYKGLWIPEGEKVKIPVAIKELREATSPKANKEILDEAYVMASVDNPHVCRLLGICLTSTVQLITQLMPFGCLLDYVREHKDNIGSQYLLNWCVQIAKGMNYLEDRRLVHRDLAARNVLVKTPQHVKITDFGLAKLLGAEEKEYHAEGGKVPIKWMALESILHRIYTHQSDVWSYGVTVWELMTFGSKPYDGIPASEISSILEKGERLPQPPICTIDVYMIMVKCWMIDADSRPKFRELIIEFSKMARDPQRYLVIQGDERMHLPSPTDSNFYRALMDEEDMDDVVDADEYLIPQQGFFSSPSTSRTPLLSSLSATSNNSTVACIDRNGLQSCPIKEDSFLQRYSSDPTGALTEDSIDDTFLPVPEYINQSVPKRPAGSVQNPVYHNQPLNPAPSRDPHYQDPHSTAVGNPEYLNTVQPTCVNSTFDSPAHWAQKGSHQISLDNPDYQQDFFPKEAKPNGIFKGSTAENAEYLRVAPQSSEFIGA

[4] = target: Dual specificity mitogen-activated protein kinase kinase 1 (Homo sapiens, UniProt Q02750); test: Inhibition of Dual specificity mitogen-activated protein kinase kinase, MEK
Dual specificity mitogen-activated protein kinase kinase 1, sequence (Q02750 whole entry): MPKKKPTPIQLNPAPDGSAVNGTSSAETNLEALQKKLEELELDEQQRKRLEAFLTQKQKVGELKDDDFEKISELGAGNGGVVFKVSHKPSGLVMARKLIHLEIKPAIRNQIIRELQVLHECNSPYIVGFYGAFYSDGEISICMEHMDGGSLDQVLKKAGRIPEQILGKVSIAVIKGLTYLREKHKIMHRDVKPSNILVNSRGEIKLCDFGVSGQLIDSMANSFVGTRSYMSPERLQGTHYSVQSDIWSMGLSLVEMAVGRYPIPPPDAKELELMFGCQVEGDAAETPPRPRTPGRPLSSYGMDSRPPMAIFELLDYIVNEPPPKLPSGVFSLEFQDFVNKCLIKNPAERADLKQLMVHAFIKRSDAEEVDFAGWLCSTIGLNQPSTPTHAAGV

[5] = target: Cyclin-dependent kinase 4 (Homo sapiens) (UniProt P11802); test: Inhibition of Cyclin-dependent kinase 4 (CDK4) at ug/mL; details: concentration not given here
Cyclin-dependent kinase 4 (Homo sapiens), sequence (P11802 whole entry): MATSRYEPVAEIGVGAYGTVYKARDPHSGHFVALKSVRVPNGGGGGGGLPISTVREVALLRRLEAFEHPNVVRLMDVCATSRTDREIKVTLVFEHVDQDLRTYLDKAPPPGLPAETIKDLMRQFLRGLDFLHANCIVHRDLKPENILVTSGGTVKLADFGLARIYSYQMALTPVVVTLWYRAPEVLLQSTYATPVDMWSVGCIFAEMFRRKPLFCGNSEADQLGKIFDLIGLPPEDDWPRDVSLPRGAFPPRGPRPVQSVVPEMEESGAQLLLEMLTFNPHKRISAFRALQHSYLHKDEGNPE

Proto-oncogene tyrosine-protein kinase Src, sequence (P12931 2-536 limits assumed): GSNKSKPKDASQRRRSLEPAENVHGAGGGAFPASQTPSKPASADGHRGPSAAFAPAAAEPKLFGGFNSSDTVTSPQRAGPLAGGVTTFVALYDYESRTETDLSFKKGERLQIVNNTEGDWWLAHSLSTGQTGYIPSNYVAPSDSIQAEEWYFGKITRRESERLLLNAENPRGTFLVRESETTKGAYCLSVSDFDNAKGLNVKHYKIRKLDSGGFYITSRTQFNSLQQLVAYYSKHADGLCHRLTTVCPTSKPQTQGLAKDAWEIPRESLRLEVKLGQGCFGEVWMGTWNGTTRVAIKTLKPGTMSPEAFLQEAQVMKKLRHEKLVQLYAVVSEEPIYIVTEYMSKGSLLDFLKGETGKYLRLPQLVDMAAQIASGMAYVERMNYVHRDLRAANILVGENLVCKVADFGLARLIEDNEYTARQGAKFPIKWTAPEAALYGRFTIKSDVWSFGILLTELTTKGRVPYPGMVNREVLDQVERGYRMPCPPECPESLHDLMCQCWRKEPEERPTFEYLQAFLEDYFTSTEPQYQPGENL

IC50 [2] | IC50 [3] | IC50 [4] | inhibition [5] | Compound | IC50 [1]
3.7 nM | – | – | – | CCN1CCN(CCc2ccc(-c3ccc4c(Nc5cc(OC)c(Cl)cc5Cl)c(C#N)cnc4c3)cc2)CC1 | 1900 nM
– | – | – | – | COc1cc(Nc2c(C#N)cnc3cc(OCCCN4CCN(C)CC4)c(OC)cc23)c(Cl)cc1Cl [BOSUTINIB] | 100 nM
14 nM | – | – | – | COc1cc(Nc2c(C#N)cnc3cc(-c4cccc(CN5CCN(C)CC5)c4)ccc23)c(Cl)cc1Cl | 2800 nM
3 nM | – | – | – | CCN1CCN(Cc2ccc(-c3ccc4c(Nc5cc(OC)c(Cl)cc5Cl)c(C#N)cnc4c3)cc2)CC1 | 960 nM
7 nM | – | – | – | CCN1CCN(Cc2ccc(-c3cc4ncc(C#N)c(Nc5cc(OC)c(Cl)cc5Cl)c4cc3OC)cc2)CC1 | 2000 nM
4000 nM | – | – | – | COc1cc(Nc2c(C#N)cnc3cc(-c4ccccc4CN4CCOCC4)ccc23)c(Cl)cc1Cl | > 10000 nM
11 nM | – | – | – | COc1cc(Nc2c(C#N)cnc3cc(-c4ccc(CCN5CCOCC5)cc4)c(OC)cc23)c(Cl)cc1Cl | 1300 nM
29 nM | – | – | – | COc1cc(Nc2c(C#N)cnc3cc(-c4cccc(CCN5CCOCC5)c4)ccc23)c(Cl)cc1Cl | 3200 nM
74 nM | – | – | – | COc1cc(Nc2c(C#N)cnc3cc(-c4cccc(CCN5CCOCC5)c4)c(OC)cc23)c(Cl)cc1Cl | 12000 nM
3.3 nM | 3000 nM | 280 nM | 10% | COc1cc(Nc2c(C#N)cnc3cc(-c4ccc(CN5CCOCC5)cc4)ccc23)c(Cl)cc1Cl | 520 nM
15 nM | – | – | – | COc1cc(Nc2c(C#N)cnc3cc(-c4ccc(CN5CCOCC5)cc4)c(OC)cc23)c(Cl)cc1Cl | 1500 nM
150 nM | – | – | – | COc1cc(Nc2c(C#N)cnc3cc(-c4cccc(CN5CCOCC5)c4)c(OC)cc23)c(Cl)cc1Cl | 8100 nM
14 nM | – | – | – | COc1cc(Nc2c(C#N)cnc3cc(-c4ccc(CCN5CCOCC5)cc4)ccc23)c(Cl)cc1Cl | 1000 nM
28 nM | – | – | – | COc1cc(Nc2c(C#N)cnc3cc(-c4cccc(CN5CCOCC5)c4)ccc23)c(Cl)cc1Cl | 3900 nM
4.7 nM | – | – | – | COc1cc(Nc2c(C#N)cnc3cc(-c4ccc(CN5CCN(CCO)CC5)cc4)ccc23)c(Cl)cc1Cl | 71 nM
